Experimental data published in BindingDB's records for patent US117730 (Glaxosmithkline Intellectual Property Development, 2023).

Biological target: T1, Furin [108-574] (Homo sapiens, UniProt P09958)
T1 construct: 108-574
Assay: Furin Enzyme Assay
Method: Reactions were performed in black 384-well polystyrene low volume plates (Greiner). […] Compounds of the invention were dissolved in DMSO (1.0 mM) and serially diluted 1 to 3 with DMSO through eleven dilutions to provide a final compound concentration range from 0.00017 to 10 μM. 0.05 μL of each concentration was transferred to the corresponding well of an assay plate, and then 5 μL of 40 pM furin enzyme in assay buffer (100 mM HEPES pH7.5, 1 mM CaCl2 and 0.005% Triton X-100) was added using a Multidrop Combi (Thermo) to the compound plates, and mixed by inversion. […] The plates were centrifuged at 500×g for 1 minute and incubated at room temperature for two hours. Enzyme inhibition is then quantified using an Envision instrument (PerkinElmer).

T1 sequence (P09958 108-574): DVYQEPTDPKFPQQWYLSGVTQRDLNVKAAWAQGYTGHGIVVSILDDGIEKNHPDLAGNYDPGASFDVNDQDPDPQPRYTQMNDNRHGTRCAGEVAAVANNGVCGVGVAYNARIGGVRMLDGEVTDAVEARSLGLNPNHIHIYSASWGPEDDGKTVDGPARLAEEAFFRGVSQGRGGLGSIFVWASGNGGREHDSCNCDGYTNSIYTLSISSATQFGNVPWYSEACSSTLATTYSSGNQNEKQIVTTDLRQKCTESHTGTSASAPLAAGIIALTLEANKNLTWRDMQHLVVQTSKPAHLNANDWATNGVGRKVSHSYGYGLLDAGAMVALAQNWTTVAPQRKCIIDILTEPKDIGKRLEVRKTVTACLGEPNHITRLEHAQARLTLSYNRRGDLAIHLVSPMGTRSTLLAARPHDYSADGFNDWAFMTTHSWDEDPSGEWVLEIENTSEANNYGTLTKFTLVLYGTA

IC50 | Structure (SMILES)
0.2 nM | CC(=O)NCC1CCN(Cc2cc(Oc3cnc(C4CCN(C(C)CC(=O)O)CC4)nc3)nc(-c3cc(Cl)cc(Cl)c3)c2)CC1 (configuration not stated) [US11773078, Example 282]
0.2 nM | CNC(=O)NCC1CCN(Cc2cc(Oc3ccc(N4CCN(CCCS(N)(=O)=O)CC4)nc3)nc(-c3cc(Cl)cc(Cl)c3)c2)CC1 [US11773078, Example 260]
2 nM | CC(=O)NCC1CCN(Cc2cc(Oc3cnc(N4CCN(CCS(=O)(=O)O)CC4)nc3)nc(-c3cc(Cl)cc(Cl)c3)c2)CC1 [US11773078, Example 287]
0.063 nM | CNC(=O)NCC1CCN(Cc2cc(Cc3cnc(N4CCN(CCC(C)S(C)(=O)=O)CC4)nc3)nc(-c3cc(Cl)cc(Cl)c3)c2)CC1 (configuration not stated) [US11773078, Example 220]
0.032 nM | NS(=O)(=O)CCC1CCN(Cc2cc(Oc3ccc(N4CCN(CCC(=O)O)CC4)nc3)nc(-c3cc(Cl)cc(Cl)c3)c2)CC1 [US11773078, Example 277]
0.013 nM | CNC(=O)OCC1CCN(Cc2cc(Oc3cnc(N4CCN(C(C)CCC(=O)O)CC4)nc3)nc(-c3cc(Cl)cc(Cl)c3)c2)CC1 (configuration not stated) [US11773078, Example 208]
2 nM | CN1C2CCC1CN(c1ncc(Cc3nc(-c4cc(Cl)cc(Cl)c4)cc(CN4CCC(CC(=O)O)CC4)c3F)cn1)C2 [US11773078, Example 378]
< 0.158 nM | CNC(=O)NCC1CCN(Cc2cc(Oc3cnc(N4CCN(CCO)CC4)nc3)cc(-c3cc(Cl)cc(Cl)c3)c2)CC1 [US11773078, Example 313]
0.032 nM | CN1CCCN(c2ccc(Oc3cc(CN4CC[C@@H]5[C@H](CC4)[C@H]5C(=O)O)cc(-c4cc(Cl)cc(Cl)c4)n3)nn2)CC1 [US11773078, Example 362]
0.032 nM | CNC(=O)OCC1CCN(Cc2cc(Oc3cnc(N4CCN(CCC(=O)O)CC4)nc3)nc(-c3cc(Cl)cc(Cl)c3)c2)CC1 [US11773078, Example 248]
0.2 nM | C[C@H](CC1CCN(Cc2cc(Oc3ccc(N4CCN(C)CC4)nn3)nc(-c3cc(Cl)cc(Cl)c3)c2)CC1)C(=O)O [US11773078, Example 364]
0.398 nM | CC(=O)NCC1CCN(Cc2cc(Cc3cnc(N4CCN(C(C)CCC(=O)O)CC4)nc3)nc(-c3cc(Cl)cc(Cl)c3)c2)CC1 (configuration not stated) [US11773078, Example 215]
< 0.158 nM | CC(=O)NCC1CCN(Cc2cc(Oc3ccc(N4CCN(CCCS(C)(=O)=O)CC4)nc3)nc(-c3cc(Cl)cc(Cl)c3)c2)CC1 [US11773078, Example 251]
0.794 nM | CN1CCN(c2ncc(Oc3cc(CN4CC[C@@H]5[C@H](CC4)[C@H]5C(=O)O)cc(-c4cc(Cl)cc(Cl)c4)n3)cn2)CC1 [US11773078, Example 321]

Continued, compound first:

Structure (SMILES) | IC50
COC(=O)NCC1CCN(Cc2cc(Oc3cnc(N4CC5CCC(C4)N5CCC(=O)O)nc3)nc(-c3cc(Cl)cc(Cl)c3)c2)CC1 [US11773078, Example 56] | 0.032 nM
CC(=O)NCC1CCN(Cc2cc(Cc3cnc(N4CC5CCC(C4)N5C)nc3)nc(-c3cc(Cl)cc(Cl)c3)c2)CC1 [US11773078, Example 71] | 0.2 nM
CC(=O)NCC1CCN(Cc2cc(Oc3cnc(N4CCN(CCC5(C(=O)O)CC5)CC4)nc3)cc(-c3cc(Cl)cc(Cl)c3)c2)CC1 [US11773078, Example 173] | 0.398 nM
O=C(O)CC1CCN(Cc2cc(Oc3ccc(C4C[C@@H]5C[C@H]4CN5)nc3)nc(-c3cc(Cl)cc(Cl)c3)c2)CC1 (some centres not stated) [US11773078, Example 187] | 1.26 nM
CC(=O)NCC1CCN(Cc2cc(Oc3ccc(N4C[C@H](C)N(CCS(C)(=O)=O)C[C@@H]4C)nc3)nc(-c3cc(Cl)cc(Cl)c3)c2)CC1 [US11773078, Example 183] | 0.025 nM
CC(O)CCN1CCC(c2cnc(Cc3cc(CN4CCC(CC(N)=O)CC4)cc(-c4cc(Cl)cc(Cl)c4)n3)cn2)CC1 (configuration not stated) [US11773078, Example 164] | 3.98 nM
CC(C)(O)CCC1CCN(Cc2cc(Oc3ccc(N4CCNCC4)nc3)nc(-c3cc(Cl)cc(Cl)c3)c2)CC1 [US11773078, Example 120] | 2 nM
CNC(=O)NCC1CCN(Cc2cc(Oc3cnc(N4CCN(CCC(C)[S+](C)[O-])CC4)nc3)nc(-c3cc(Cl)cc(Cl)c3)c2)CC1 (configuration not stated) [US11773078, Example 17] | 0.032 nM
CC(=O)NCC1CCN(Cc2cc(Oc3ccc(N4C[C@H](CN)[C@@H](O)C4)nc3)nc(-c3cc(Cl)cc(Cl)c3)c2)CC1 [US11773078, Example 184] | 0.251 nM
CNC(=O)NCC1CCN(Cc2cc(Oc3cnc(N4CCN(C)CC4)nc3)nc(-c3cc(Cl)cc(Cl)c3)c2)CC1 [US11773078, Example 70] | 0.032 nM
CN1C2CC1CN(c1ncc(Oc3cc(CN4CCC(CC(=O)O)CC4)cc(-c4cc(Cl)cc(Cl)c4)n3)cn1)C2 [US11773078, Example 228] | 2.51 nM
COC(=O)NC(=O)CCN1CCN(c2ncc(Cc3cc(CN4CCC(CNC(C)=O)CC4)cc(-c4cc(Cl)cc(Cl)c4)c3)cn2)CC1 [US11773078, Example 172] | 0.251 nM
CC(=O)NCC1CCN(Cc2cc(Oc3cnc(N4CCN(CCCO)CC4)nc3)cc(-c3cc(Cl)cc(Cl)c3)c2)CC1 [US11773078, Example 113] | < 0.158 nM
CN1CCC(c2ncc(Oc3cc(CN4CCC(CC(=O)O)CC4)cc(-c4cc(Cl)cc(Cl)c4)n3)cn2)CC(F)C1 (configuration not stated) [US11773078, Example 147] | 0.631 nM
O=C(O)CCC1CCN(Cc2cc(Oc3cnc(N4CCN(CCO)CC4)nc3)cc(-c3cc(Cl)cc(Cl)c3)c2)CC1 [US11773078, Example 114] | < 0.158 nM
CC(=O)NCC1CCN(Cc2cc(Oc3cnc(N4CCN(C(=O)CCN)CC4)nc3)cc(-c3cc(Cl)cc(Cl)c3)c2)CC1 [US11773078, Example 170] | 0.794 nM
CC(=O)NCC1CCN(Cc2cc(Cc3ccc(N4CCN(CCC(=O)O)CC4)nn3)nc(-c3cc(Cl)cc(Cl)c3)c2)CC1 [US11773078, Example 169] | 0.032 nM
CNC(=O)OCC1CCN(Cc2cc(Oc3ccc(N4CCN(C)CC4)nc3)nc(-c3cc(Cl)cc(Cl)c3)c2)CC1 [US11773078, Example 67] | 1.58 nM
